“Also recorded” adds a separate entry of the source. Where no end group is shown, it is not given here.
Experiments:
[1] = system: affinity purified anti-La/SSB antibodies; experiment: Pin ELISA of La/SSB octapeptides with affinity purified anti-La/SSB antibodies; type: binding, human; conditions: for enrichment of binding relative to the serum: affinity enriched preparation, patient E11, peak or average reactivities; for binding by affinity enriched anti-La/SSB preparation: preparation from patient E11
Description: Solid Phase Anti-peptide Assay. All steps were carried out by immersing the pin blocks into microtiter plate wells. Pins were incubated in blocking buffer (1% bovine serum albumin (BSA) in phosphate buffered saline (PBS), pH 7.2) for 1 h at room temperature and then in 1:100 dilutions of sera in diluent (1% BSA and 0.05% Tween in PBS) overnight at […] in humidified containers. Pin blocks were washed four times with wash buffer (0.05% Tween in PBS) for 10 min with agitation and then immersed for 1 h at room temperature in affinity purified goat anti-human-chain specific antibody conjugated to alkaline phosphatase (Sigma Chemical Co., St. Louis, Mo.) diluted 1:1000 in diluent. After washing as above, pins were incubated in para-nitrophenyl phosphate solution at 37° C. for 2 h. Color development was read at 410 nm on a DYNATECH® MR5000 ELISA plate reader.
Samples. Sera from five normal, healthy donors and ten patients with primary SS and/or SLE were screened by pin ELISA for antibodies binding to the La/SSB octapeptides. Eight of these ten patients had both anti-Ro/SSA and anti-La/SSB precipitin forming autoantibodies, and seven of these eight had borne children with congenital heart block (CCHB). Two patients had antibodies to Ro/SSA alone. Anti-La/SSB antibodies were affinity purified from the sera of two patients on La/SSB cross-linked immunosorbents as described by Horsfall, et al., J. Immunol. Meth. 104:43 (1987).
Anti-La/SSB antibodies from two patients have been affinity purified on La/SSB cross-linked immunosorbents. […] The affinity enriched preperation binds 17 of the 18 previously identified epitopes, the exception being epitope 17 (octapeptide 379); however, this preperation does bind octapeptides adjacent to epitope 17, particularly octapeptides 380 and 382. Those putative epitopes in which the binding is most enriched include epitopes 2, 3, 6, 9, 10, 12, 13 and 15. These same epitopes appear enriched whether peak or average reactivities for each putative epitope are compared. Essentially the same results have been obtained from an affinity enriched preparation of the anti-La/SSB from a second patient.

[2] = system: anti-Sm and anti-nRNP precipitin sera (IgG); experiment: Solid phase antipeptide assay of Sm B/B' and related peptides with Sm, nRNP precipitin positive sera; type: binding, human; conditions: for antigenicity / reactivity in words: sera 1/100, Sm and nRNP precipitin positive SLE patients
Description: Sera. Human sera form patients who satisfied the classification criteria of the American Rheumatism Association for SLE or normal age-matched, sex-matched controls were used in this study. Fifteen sera from lupus patients were tested. Ten of these sera tested contained antibodies that formed strong precipitin lines with both Sm and nRNP, three formed precipitin lines with only nRNP, one formed a precipitin line with Ro/SSA and La/SSB, and one formed a precipitin line with only Ro/SSA. All of these serologic findings were confirmed by appropriate molecular weight bands for the reported antigen being bound in immunoblot by the respective sera.
Solid-phase noncleavable peptide synthesis. The published sequence of Sm B/B′ was used to construct all the possible overlapping octapeptides. The amino acids used for peptide synthesis had Fmoc protected primary amino groups and t-butyl (or other appropriate group) protected side chains. Overlapping octapeptides were simultaneously synthesized at the rounded ends of radiation derivatized polyethylene pins that were arranged in the format of a 96 well microliter plate (Cambridge Research Biochemicals. Cambridge, UK and Coselco Mimotopes Pty Ltd. Victoria, Australia) The active esters of Fmoc, t-butyl amino acid solutions (30 mM) were solubilized in DMF that had […] added to a final concentration of 30 mM and dispensed into the wells of a microliter plate. Each amino acid was added as determined by the 240 amino acids of the Raji Sm B/B′ sequence. After 18 h of incubation, the pins were washed in DMF for 5 min. four times at 2 min each in methanol, and once again in DMF for 5 min. The Fmoc protecting groups were then removed from the newly added amino acid by a 20% piperidine/DMF bath for 30 min. These steps were repeated until all eight amino acids were added. After the final amino acid, the amino terminal groups of each peptide was acetylated by incubating the pins in a 5:2:1 (v/v/v) mixture of DMF:acetic anhydride: triethylamine for 90 min at room temperature. After this step the pins were again washed in DMF for 2 min, four times at 2 min each in methanol, and then air-dried for 10 min. Finally, side chain amino protecting groups were removed by […] (v/w/v) of trifluoracetic acid:phenol:ethanedithiol. Wash steps included 2 min in methylene chloride, two times at 5 min each in 5% […]/methylene chloride, and a final methylene chloride wash for 5 min. After drying for 10 min., pins were placed in distilled water for 2 min., transferred to a methanol bath for 18 h. and dried under vacuum for 18 h. This procedure was repeated to synthesize another set of the carboxyl-terminal 36 octapeptides to allow substantiation of the previous data. In addition other octapeptides, including the amino acid changes seen in the vanDam/Ohosone Proc. Natl. Acad. Sci. USA 86:4249 (1989) sequences, were also synthesized. Selected substitution and deletion sequences, along with similar sequences from other proteins, were also constructed. Control pins composed of amino acids in a random sequence were prepared that were not present in any of the Sm or nRNP antigen sequences. In addition, positive control pins were synthesized from a known reactive sequence of the La/SSB peptide.
Solid phase antipeptide assay. Wash steps and incubations were carried out in sealed plastic containers. Other assay steps were performed by lowering the pins into microliter plate wells. First, pins were blocked with 3% low-fat milk in PBS for 1 h at room temperature. Pins were then incubated in 1/100 dilutions of sera in 3% milk/PBS with 0.05% TWEEN® (surfactant) overnight at 4° C. in humidified sealed containers. The pin blocks were then washed four times with PBS with 0.05% TWEEN® (surfactant) for 10 min each with vigorous agitation. […]

[3] = system: KSm 3 monoclonal autoantibody; experiment: Binding of monoclonal antibody KSm 3 to Sm B/B' octapeptides; design: species or system MRL lpr/lpr mouse; conditions: hybridoma supernatant
From the text: Autoantibodies binding the Sm B and B′ peptides (B/B′) are commonly associated with systemic lupus erythernatosus in man and in MRL lpr/lpr mice. KSm 3 and KSm 5 were derived from an unmanipulated MRL lpr/lpr mouse using hybridoma monoclonal antibody technology. Supernatants containing KSm 3 and KSm 5 monoclonal antibodies were collected from cloned murine hybridoma cell lines in RPMI 1640 with 10% fetal bovine serum, glutamine, penicillin and streptomycin. These monoclonal autoantibodies are both of the IgG2a subclass. The linear antigenic regions of these two anti-Sm B/B′ murine monoclonal autoantibodies have been mapped using overlapping octapeptides. Unique epitopes are identified by each monoclonal. Monoclonal antibody KSm 5 recognizes the peptide, PPPGMRPP (amino acids 4-11 of SEQ ID NO:14), which is repeated three times in the Sm B polypeptide. […] Both of these regions of Sm B/B′ are major areas of antigericity for human anti-Sm autoantibodies. […] When the arginine in the sixth position PPPGMRPP (amino acids 4-11 of SEQ ID NO:14) is substituted KSm 5 binding is found in an unexpected subset of octapeptides. […] In contrast, binding of KSm 3 to PPPGIRPP (SEQ ID NO:122) is abolished when the sixth position arginine is substituted by any other amino acid. These two murine autoantibodies bind distinct linear epitopes of Sm B/B′ which are also bound by human anti-Sm B/B′ autoantibodies. […]

[4] = system: antibody of patient serum; experiment: Solid phase assay of nRNP (70 kD, A, C) octapeptides with patient sera; type: binding, human; conditions: nRNP A sequences marked (*)
From the text: The sequence of the 70 kD nuclear ribonucleoprotein (nRNP) is reported by R. A. Spritz, et al., in Nucleic Acids Res. 24: 10373-10391 (1987), the teachings of which are incorporated herein. The data analysis is done the same as for the Ro/SSA and La/SSB antigens. Each sequence identified represents the binding of antibody to octapetides that exceed arbitrary criteria in the solid phase assay. The identified antigenic regions are more than two standard deviations above the mean of normal sera and are bound by more than half of the patients. For the binding to the 70 kD peptide, the threshold in the assay is A410 of 0.380. The numbers in parentheses are the sequence positions of the first amino acid in the first octapeptide that exceeds the threshold. Each identified sequence is composed of one or more octapeptides. The number of octapeptides in each sequence is the length of the sequence […]. The underlined part of the sequence is the octapeptide that is bound most by the patient serum. In some cases, another octapeptide is essentially equivalent but not underlined.

Substance | enrichment of binding relative to the serum [1] | antigenicity / reactivity in words [2] | other results
IFVVFDSIE [epitope 9] | most enriched | – | –
ICHQIEYYFGDFNLPRDKFLK [epitope 2] | most enriched | – | –
PPP | – | no solely poly-proline sequence tested | –
DCDEFRKI (homo sapien) [octapeptide 44] | – | Binding is lost | –
PPPGIRGP (listed as Homo sapiens) | – | bound by all the Sm, nRNP sera tested | binding by KSm 3 in words [3]: binds best
PGIRGPPP (homo sapien) | – | – | binding by KSm 3 in words [3]: binds best
TDFNVIVEA [epitope 12] | most enriched | – | –
PAPGMRPP (homo sapien) | – | as antigenic as PPPGMRPP | original reactivity (binding) of PPPGMRPP retained ([2]; substituted or homologous octapeptides, six patient sera): over 90%
REDLHILF [epitope 15] | most enriched | – | –
LVSRSLKMRQAF | – | – | proportion of sera binding [4]: bound by a subset of the sera tested
octapeptide 382: La/SSB octapeptide adjacent to epitope 17, starting at amino acid 382 (VKRAREET; UniProt P05455 382-389, looked up, fragment) | – | – | binding by affinity enriched anti-La/SSB preparation [1]: does bind
PPPGMIPP (homo sapien) | – | not antigenic; also recorded: does not bind | antigenicity / reactivity in words ([2]; listed as nRNP A): relatively no reactivity
PPPGMRP (PPPGMXP; homo sapien; (3)..(10) Binding site) | – | does not appear to significantly alter binding | –
KETDLLILFKDDYFA [epitope 10] | most enriched | – | –
GEIKWIDFVRGAK [epitope 6] | most enriched | – | –
octapeptide 380: La/SSB octapeptide adjacent to epitope 17, starting at amino acid 380 (GPVKRARE; UniProt P05455 380-387, looked up, fragment) | – | – | binding by affinity enriched anti-La/SSB preparation [1]: does bind
PPPP (homo sapien) | – | no solely poly-proline sequence tested | –
PPPGM (homo sapien; (3)..(10) Binding site) | – | – | reactivity to the PPPGMRPP motif destroyed ([2]; deletion peptides, six patient sera): Greater than 60%
PKNAKQPE (homo sapien) [octapeptide 53] | – | Binding is lost | –
PPPPP (homo sapien) | – | no solely poly-proline sequence tested | –
WVPLEIMIKFNR [epitope 3] | most enriched | – | –
PPPGMR (not fully specified) | – | does not appear to significantly alter binding | –
ERDRKREKRKPKS | – | – | proportion of sera binding [4]: bound by a subset of the sera tested
EGIILFKEKAK [epitope 13] | most enriched | – | –
